Legend:
[1] = molecular target: DCN1 protein (Homo sapiens (Human), UniProt Q96GG9); assay: Intact Protein MS Analysis with the RapidFire-TOF System (covalent adduct formation); type: binding; conditions: MS Emax; 400 nM DCN1, 3 hours at room temperature
Summary of the method: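 Tag-cleaved human DCN1 (400 nM) expressed in E. coli, in 25 mM Tris-HCl, 200 mM NaCl, 1 mM DTT, was incubated with 11 compound concentrations for 3 h at room temperature and quenched with 0.2% formic acid. Intact-protein Q-TOF MS with deconvolution detected the compound adduct mass.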

[2] = system: fetal hemoglobin gene HBG1; assay: HBG1 Nanostring Assay in CD34+ HSPC erythroid differentiation culture; type: cell-based, human; conditions: for EC50: HBG1 induction, Day10 of erythroid differentiation; for Nanostring Ymax obs (%): relative to a control compound (C1)
Summary of the method: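 HBG1 counts came from direct nCounter hybridization (67° C, 22 h) of day-10 lysates, normalized to ERCC positive controls and a housekeeping gene, giving EC50 and Ymax versus a reference compound. Compounds in 0.1% DMSO were present from day −2 while cells underwent EPO/SCF/IL-3 erythroid differentiation, with IL-3 dropped at day 7, at 37° C.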

DCN1 protein, sequence (Q96GG9 whole entry): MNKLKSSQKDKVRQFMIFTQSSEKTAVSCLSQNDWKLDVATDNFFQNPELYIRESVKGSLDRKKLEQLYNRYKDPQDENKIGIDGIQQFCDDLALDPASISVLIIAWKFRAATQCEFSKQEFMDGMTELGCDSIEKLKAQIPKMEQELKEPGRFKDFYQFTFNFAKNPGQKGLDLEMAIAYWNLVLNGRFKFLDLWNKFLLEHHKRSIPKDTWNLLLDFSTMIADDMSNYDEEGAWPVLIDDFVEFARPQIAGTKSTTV

`CCN1C(=O)[C@@H](NC(=O)c2cccc(C(F)(F)F)c2)[C@@H](C2CC2)c2c(C(=O)N3[C@H](C#N)C[C@H]4C[C@H]43)nn(C3CCOCC3)c21` [Compound I-256, N-((4S,5S)-3-((1R,3S,5R)-3-cyano-2-azabicyclo[3.1.0]hexane-2-carbonyl)-4-cyclopropyl-7-ethyl-6-oxo-1-(tetrahydro-2H-pyran-4-yl)-4,5,6,7-tetrahydro-1H-pyrazolo[3,4-b]pyridin-5-yl)-3-(trifluoromethyl)benzamide] was tested. Which “% Adduct Formation” value [1] did it give?
The value was “+++ (MS Emax % adduct formation greater than 80.0 and less than or equal to 100.0)”.

And the EC50 ([2]; Homo sapiens, 240 h)?
Its EC50 is ≤ 100 nM.

And the “Nanostring Ymax obs (%)” value [2]?
The value was “+++ (Nanostring Ymax greater than 100.0)”.

`CCN1C(=O)[C@@H](NC(=O)c2cccc(C(F)(F)F)c2)[C@@H](c2ccc(F)cc2)c2c(C(=O)N3[C@H](C#N)C[C@H]4C[C@H]43)nn(-c3ccccc3)c21` [Compound I-277] was tested. Which “% Adduct Formation” value [1] did it give?
Its value is “+++ (MS Emax % adduct formation greater than 80.0 and less than or equal to 100.0)”.

And the EC50 ([2]; Homo sapiens, 240 h)?
The EC50 was ≤ 100 nM.

What about the “Nanostring Ymax obs (%)” value [2] of the same compound?
The value was “+++ (Nanostring Ymax greater than 100.0)”.

`CCN1C(=O)[C@@H](NC(=O)c2cccc(C(F)(F)F)c2)[C@@H](c2ccc(F)cc2)c2c(C(=O)N3CCC[C@H]3C#N)nn(-c3ccccc3)c21` [Compound I-278] was tested. Which “% Adduct Formation” value [1] did it give?
Its value is “+++ (MS Emax % adduct formation greater than 80.0 and less than or equal to 100.0)”.

What about the EC50 ([2]; Homo sapiens, 240 h) of the same compound?
The EC50 was ≤ 100 nM.

And the “Nanostring Ymax obs (%)” value [2]?
Its value is “+++ (Nanostring Ymax greater than 100.0)”.

What does the source list for `CCN1C(=O)[C@@H](NC(=O)c2cccc(C(F)(F)F)c2)[C@@H](c2ccc(F)cc2)c2c(C(=O)N3CCNCC3C#N)nn(C3CCOCC3)c21` (stereo partly drawn) [Compound I-334]?
% Adduct Formation [1]: +++ (MS Emax % adduct formation greater than 80.0 and less than or equal to 100.0); EC50 ([2]; Homo sapiens, 240 h): ≤ 100 nM; Nanostring Ymax obs (%) [2]: +++ (Nanostring Ymax greater than 100.0)

How did the “% Adduct Formation” value [1] turn out when `CCN1C(=O)[C@@H](NC(=O)c2cccc(C(F)(F)F)c2)[C@@H](c2ccc(F)cc2)c2c(C(=O)N3CCC[C@H]3C#N)nn(C3CCOCC3)c21` [Compound I-350] was run?
Its value is “++ (MS Emax % adduct formation greater than 30.0 and less than or equal to 80.0)”.

And the EC50 [2]?
The EC50 was ≤ 100 nM.

And the “Nanostring Ymax obs (%)” value [2]?
The value was “+++ (Nanostring Ymax greater than 100.0)”.

With `CCN1C(=O)[C@@H](NC(=O)c2cccc(C(F)(F)F)c2)[C@@H](c2ccc(F)cc2)c2c(C(=O)N3CCNC[C@H]3C#N)nn(C3CCOCC3)c21` [Compound I-363, N-((4S,5S)-3-((S)-2-cyanopiperazine-1-carbonyl)-7-ethyl-4-(4-fluorophenyl)-6-oxo-1-(tetrahydro-2H-pyran-4-yl)-4,5,6,7-tetrahydro-1H-pyrazolo[3,4-b]pyridin-5-yl)-3-(trifluoromethyl)benzamide] as the compound, how does the “% Adduct Formation” value [1] read?
Its value is “+++ (MS Emax % adduct formation greater than 80.0 and less than or equal to 100.0)”.

And the EC50 ([2]; Homo sapiens, 240 h)?
Its EC50 is ≤ 100 nM.

And the “Nanostring Ymax obs (%)” value [2]?
The value was “+++ (Nanostring Ymax greater than 100.0)”.

Which “% Adduct Formation” value [1] does the source give for `CCN1C(=O)[C@@H](NC(=O)c2cccc(C(F)(F)F)c2)[C@@H](c2ccc(F)cc2)c2c(C(=O)N(C)[C@@H](C#N)CCN(C)C)nn(C3CCOCC3)c21` [Compound I-369] here?
The value was “+++ (MS Emax % adduct formation greater than 80.0 and less than or equal to 100.0)”.

What about the EC50 ([2]; Homo sapiens, 240 h) of the same compound?
Its EC50 is ≤ 100 nM.

What about the “Nanostring Ymax obs (%)” value [2] of the same compound?
Its value is “+++ (Nanostring Ymax greater than 100.0)”.

With `CCN1C(=O)[C@@H](NC(=O)c2cccc(C(F)(F)F)c2)[C@@H](c2ccc(F)cc2)c2c(C(=O)N(C)[C@H](C#N)CCN(C)C)nn(C3CCOCC3)c21` [Compound I-370] as the compound, how does the “% Adduct Formation” value [1] read?
The value was “+++ (MS Emax % adduct formation greater than 80.0 and less than or equal to 100.0)”.

And the EC50 ([2]; Homo sapiens, 240 h)?
Its EC50 is ≤ 100 nM.

What about the “Nanostring Ymax obs (%)” value [2] of the same compound?
Its value is “+++ (Nanostring Ymax greater than 100.0)”.

For `CCN1C(=O)[C@@H](NC(=O)c2cccc(C(F)(F)F)c2)[C@@H](C2CC2)c2c(C(=O)N3C[C@H](F)C[C@H]3C#N)nn(C3CCOCC3)c21` [Compound I-372], which “% Adduct Formation” value [1] is on record?
The value was “+++ (MS Emax % adduct formation greater than 80.0 and less than or equal to 100.0)”.

What about the EC50 ([2]; Homo sapiens, 240 h) of the same compound?
Its EC50 is 100 to 1000 nM.

And the “Nanostring Ymax obs (%)” value [2]?
Its value is “++ (Nanostring Ymax greater than 50.0 and less than or equal to 100.0)”.

For `CCN1C(=O)[C@@H](NC(=O)c2cccc(C(F)(F)F)c2)[C@@H](C2CC2)c2c(C(=O)N3C[C@H](OC)C[C@H]3C#N)nn(C3CCOCC3)c21` [Compound I-377], which “% Adduct Formation” value [1] is on record?
Its value is “+++ (MS Emax % adduct formation greater than 80.0 and less than or equal to 100.0)”.

What about the EC50 ([2]; Homo sapiens, 240 h) of the same compound?
The EC50 was ≤ 100 nM.

And the “Nanostring Ymax obs (%)” value [2]?
Its value is “+++ (Nanostring Ymax greater than 100.0)”.

For `CCN1C(=O)[C@@H](NC(=O)c2cccc(C(F)(F)F)c2)[C@@H](C2CC2)c2c(C(=O)N3CCNC[C@H]3C#N)nn(-c3ccccc3)c21` [Compound I-383], which “% Adduct Formation” value [1] is on record?
The value was “+++ (MS Emax % adduct formation greater than 80.0 and less than or equal to 100.0)”.

What about the EC50 ([2]; Homo sapiens, 240 h) of the same compound?
Its EC50 is ≤ 100 nM.

And the “Nanostring Ymax obs (%)” value [2]?
Its value is “++ (Nanostring Ymax greater than 50.0 and less than or equal to 100.0)”.

How did the “% Adduct Formation” value [1] turn out when `CCN1C(=O)[C@@H](NC(=O)c2cccc(C(F)(F)F)c2)[C@@H](C)c2c(C(=O)N3[C@H](C#N)C[C@H]4C[C@H]43)nn(C3CCOCC3)c21` [Compound I-387] was run?
The value was “+++ (MS Emax % adduct formation greater than 80.0 and less than or equal to 100.0)”.

And the EC50 [2]?
The EC50 was ≤ 100 nM.

And the “Nanostring Ymax obs (%)” value [2]?
Its value is “+++ (Nanostring Ymax greater than 100.0)”.
